Measured values reported in ChEMBL document CHEMBL1909046, “DrugMatrix in vitro pharmacology data”.

Assays:
[1] = biological target: 5-hydroxytryptamine receptor 2B (Homo sapiens, UniProt P41595); type: cell membranes, CHO-K1, Membrane; settings: for Ki: read-out: Ki; as to all read-outs here: in other assays of this panel Not Active means under 50% inhibition at 10 µM
[2] = biological target: T1, 5-hydroxytryptamine receptor 2C (Homo sapiens, UniProt P28335); assay: DRUGMATRIX: Serotonin (5-Hydroxytryptamine) 5-HT2C radioligand binding (ligand: [3H] Mesulergine); type: cell membranes, CHO-K1, Membrane; settings: Not Active = under 50% inhibition at 10 µM; for Ki: read-out: Ki
T1 sequence (P28335 whole entry): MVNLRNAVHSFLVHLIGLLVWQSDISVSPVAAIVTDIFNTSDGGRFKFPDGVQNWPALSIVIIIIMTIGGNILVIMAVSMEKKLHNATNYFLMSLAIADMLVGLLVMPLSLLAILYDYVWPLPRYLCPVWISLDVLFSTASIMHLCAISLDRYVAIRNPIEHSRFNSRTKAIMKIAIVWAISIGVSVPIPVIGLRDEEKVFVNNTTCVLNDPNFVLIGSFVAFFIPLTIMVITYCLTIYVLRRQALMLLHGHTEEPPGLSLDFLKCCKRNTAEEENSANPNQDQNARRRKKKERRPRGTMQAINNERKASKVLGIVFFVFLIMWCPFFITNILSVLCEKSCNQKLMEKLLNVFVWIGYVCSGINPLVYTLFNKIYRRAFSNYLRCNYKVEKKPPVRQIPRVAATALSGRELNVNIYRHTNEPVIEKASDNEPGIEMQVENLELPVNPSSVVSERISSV

[3] = biological target: 5-hydroxytryptamine receptor 4 (Cavia porcellus, UniProt O70528); type: cell membranes, Dunkin-Hartley, Striatum, Membrane; also: in other assays of this panel Not Active means under 50% inhibition at 10 µM
[4] = biological target: T2, Vasoactive intestinal polypeptide receptor 1 (Homo sapiens, UniProt P32241); type: cell membranes, Membrane; settings: ht-29; also: in other assays of this panel Not Active means under 50% inhibition at 10 µM
T2 sequence (P32241 whole entry): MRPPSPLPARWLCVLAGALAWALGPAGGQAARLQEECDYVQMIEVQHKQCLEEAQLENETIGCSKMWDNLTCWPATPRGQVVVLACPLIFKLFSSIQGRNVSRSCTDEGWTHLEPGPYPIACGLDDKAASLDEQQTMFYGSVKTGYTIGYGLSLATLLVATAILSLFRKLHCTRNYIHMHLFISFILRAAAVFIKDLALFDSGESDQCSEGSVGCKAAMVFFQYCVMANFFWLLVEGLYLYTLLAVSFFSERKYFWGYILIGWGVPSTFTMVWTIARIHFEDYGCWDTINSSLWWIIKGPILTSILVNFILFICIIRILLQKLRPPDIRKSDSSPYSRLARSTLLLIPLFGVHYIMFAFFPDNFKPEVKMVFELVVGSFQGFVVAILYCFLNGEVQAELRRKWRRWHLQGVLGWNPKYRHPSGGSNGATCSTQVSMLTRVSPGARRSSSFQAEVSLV

Progesterone receptor = biological target: T3, Progesterone receptor (Bos taurus, UniProt Q690N0); assay: DRUGMATRIX: Progesterone radioligand binding (ligand: [3H] R-5020); type: tissue-based, Uterus; settings: Not Active = under 50% inhibition at 10 µM
T3 sequence (Q690N0 whole entry): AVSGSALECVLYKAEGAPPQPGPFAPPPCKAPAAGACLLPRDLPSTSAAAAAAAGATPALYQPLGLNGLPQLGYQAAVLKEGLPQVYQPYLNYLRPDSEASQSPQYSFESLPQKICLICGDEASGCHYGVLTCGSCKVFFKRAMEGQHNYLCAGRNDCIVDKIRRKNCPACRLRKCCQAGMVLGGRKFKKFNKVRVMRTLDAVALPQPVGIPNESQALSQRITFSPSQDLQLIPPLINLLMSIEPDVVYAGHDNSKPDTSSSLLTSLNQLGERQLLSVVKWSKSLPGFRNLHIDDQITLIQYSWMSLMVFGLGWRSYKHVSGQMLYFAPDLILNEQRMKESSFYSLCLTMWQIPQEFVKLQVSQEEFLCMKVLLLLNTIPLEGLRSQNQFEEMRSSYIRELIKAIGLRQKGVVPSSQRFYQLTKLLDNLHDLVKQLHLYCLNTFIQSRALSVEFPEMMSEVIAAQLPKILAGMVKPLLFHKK

Cytochrome P450 2A6 = biological target: T4, Cytochrome P450 2A6 (Homo sapiens, UniProt P11509); settings: bti-tn-5b1-4; also: in other assays of this panel Not Active means under 50% inhibition at 10 µM
T4 sequence (P11509 whole entry): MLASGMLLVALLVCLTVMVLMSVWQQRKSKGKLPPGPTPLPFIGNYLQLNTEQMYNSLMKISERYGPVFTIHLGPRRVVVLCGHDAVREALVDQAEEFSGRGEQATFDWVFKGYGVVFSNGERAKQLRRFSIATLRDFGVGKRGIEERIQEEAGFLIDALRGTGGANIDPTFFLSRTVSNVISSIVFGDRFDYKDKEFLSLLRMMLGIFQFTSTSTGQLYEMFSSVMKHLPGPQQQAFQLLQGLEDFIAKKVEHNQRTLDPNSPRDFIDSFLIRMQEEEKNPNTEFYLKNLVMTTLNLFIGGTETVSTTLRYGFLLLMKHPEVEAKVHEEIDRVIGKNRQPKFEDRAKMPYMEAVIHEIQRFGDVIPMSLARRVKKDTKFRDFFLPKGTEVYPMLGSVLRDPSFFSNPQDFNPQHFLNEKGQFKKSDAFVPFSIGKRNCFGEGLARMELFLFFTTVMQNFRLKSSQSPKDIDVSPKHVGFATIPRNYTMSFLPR

Chain of 5-hydroxytryptamine receptor 4 (O70528 whole entry): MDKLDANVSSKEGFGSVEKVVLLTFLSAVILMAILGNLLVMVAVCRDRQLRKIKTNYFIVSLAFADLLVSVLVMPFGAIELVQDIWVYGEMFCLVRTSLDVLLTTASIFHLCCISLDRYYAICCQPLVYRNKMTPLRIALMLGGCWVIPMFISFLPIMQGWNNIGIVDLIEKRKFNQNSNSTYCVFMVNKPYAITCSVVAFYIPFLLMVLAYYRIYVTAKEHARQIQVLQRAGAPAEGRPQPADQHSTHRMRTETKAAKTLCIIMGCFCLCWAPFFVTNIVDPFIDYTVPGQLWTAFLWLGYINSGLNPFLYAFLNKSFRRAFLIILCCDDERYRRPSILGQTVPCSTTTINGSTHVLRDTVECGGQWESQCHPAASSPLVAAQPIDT
Chain of 5-hydroxytryptamine receptor 2B (P41595 whole entry): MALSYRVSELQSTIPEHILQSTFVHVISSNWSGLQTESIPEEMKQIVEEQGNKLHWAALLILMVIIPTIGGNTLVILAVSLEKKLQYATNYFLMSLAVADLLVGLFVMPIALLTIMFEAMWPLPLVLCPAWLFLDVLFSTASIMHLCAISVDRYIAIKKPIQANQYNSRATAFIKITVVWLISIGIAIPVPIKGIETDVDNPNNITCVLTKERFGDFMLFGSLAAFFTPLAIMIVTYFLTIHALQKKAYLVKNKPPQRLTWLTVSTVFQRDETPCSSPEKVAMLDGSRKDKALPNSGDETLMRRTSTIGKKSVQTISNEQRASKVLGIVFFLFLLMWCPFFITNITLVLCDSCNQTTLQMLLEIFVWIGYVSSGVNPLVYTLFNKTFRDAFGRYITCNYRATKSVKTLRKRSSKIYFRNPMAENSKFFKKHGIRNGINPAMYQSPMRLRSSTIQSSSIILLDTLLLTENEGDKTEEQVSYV

SMILES	IC50 ([1]; read-out: IC50) [µM]	Ki [1] [nM]	IC50 ([2]; cho-k1)	IC50 [3]	IC50 [4]	IC50 (Progesterone receptor)	IC50 (Cytochrome P450 2A6)	Ki (Cytochrome P450 2A6)	IC50 ([1]; cho-k1)	IC50 ([3]; read-out: IC50) [nM]	Ki ([3]; read-out: Ki) [nM]	IC50 ([2]; read-out: IC50) [µM]	Ki [2] [µM]	IC50 (Progesterone receptor; read-out: IC50) [nM]	Ki (Progesterone receptor; read-out: Ki) [nM]
O=C(c1ccccc1C(F)(F)F)N1CCC(Cc2ccccc2)CC1	1.55	986	Not Active	Not Active	Not Active	Not Active	Not Active	Not Active							
O=C/C=C/c1ccccc1			Not Active	Not Active	Not Active	Not Active	Not Active	Not Active	Not Active						
Nc1ccc2c3c(cccc13)C(=O)NC2=O			Not Active	Not Active	Not Active	Not Active	Not Active	Not Active	Not Active						
COc1ccc(C(=O)N2CCCC2=O)cc1			Not Active	Not Active	Not Active	Not Active	Not Active	Not Active	Not Active						
O=c1cnn([C@@H]2O[C@H](CO)[C@@H](O)[C@H]2O)c(=O)[nH]1 [6-AZAURIDINE]			Not Active	Not Active	Not Active	Not Active	Not Active	Not Active	Not Active						
CC[C@H](C)[C@H]1O[C@]2(C=C[C@@H]1C)C[C@@H]1C[C@@H](C/C=C(\C)[C@@H](O[C@H]3C[C@H](OC)[C@@H](O[C@H]4C[C@H](OC)[C@@H](O)[C@H](C)O4)[C@H](C)O3)[C@@H](C)/C=C/C=C3\CO[C@@H]4[C@H](O)C(C)=C[C@@H](C(=O)O1)[C@]34O)O2.CO[C@H]1C[C@H](O[C@H]2[C@H](C)O[C@@H](O[C@@H]3/C(C)=C/C[C@@H]4C[C@@H](C[C@]5(C=C[C@H](C)[C@@H](C(C)C)O5)O4)OC(=O)[C@@H]4C=C(C)[C@@H](O)[C@H]5OC/C(=C\C=C\[C@@H]3C)[C@]54O)C[C@@H]2OC)O[C@@H](C)[C@@H]1O [ABAMECTIN]			Not Active	Not Active	Not Active	Not Active	Not Active	Not Active	Not Active						
NCCCC(O)(P(=O)(O)O)P(=O)(O)O [ALENDRONIC ACID]			Not Active	Not Active	Not Active	Not Active	Not Active	Not Active	Not Active						
Cc1nnc2n1-c1ccc(Cl)cc1C(c1ccccc1)=NC2 [ALPRAZOLAM]			Not Active	Not Active	Not Active	Not Active	Not Active	Not Active	Not Active						
Cn1c(=O)c2[nH]cnc2n(C)c1=O.Cn1c(=O)c2[nH]cnc2n(C)c1=O.NCCN [AMINOPHYLLINE]			Not Active	Not Active	Not Active	Not Active	Not Active	Not Active	Not Active						
CCC1(CCC(C)C)C(=O)NC(=O)NC1=O [AMOBARBITAL]			Not Active	Not Active	Not Active	Not Active	Not Active	Not Active	Not Active						
CC1(C)S[C@@H]2[C@H](NC(=O)[C@H](N)c3ccccc3)C(=O)N2[C@H]1C(=O)O [AMPICILLIN]			Not Active	Not Active	Not Active	Not Active	Not Active	Not Active	Not Active						
COc1ccc(C2C(=O)c3ccccc3C2=O)cc1 [ANISINDIONE]			Not Active	Not Active	Not Active	Not Active	Not Active	Not Active	Not Active						
O=C1O[C@H]([C@@H](O)CO)C(O)=C1O [ASCORBIC ACID]			Not Active	Not Active	Not Active	Not Active	Not Active	Not Active	Not Active						
CN1[C@@H]2CC[C@H]1C[C@@H](OC(=O)C(CO)c1ccccc1)C2 (some centres not stated) [ATROPINE]				Not Active	Not Active	Not Active	Not Active	Not Active	Not Active						
CC(C(=O)O)c1ccc2oc(-c3ccc(Cl)cc3)nc2c1 (configuration not stated) [BENOXAPROFEN]			Not Active	Not Active	Not Active	Not Active	Not Active	Not Active	Not Active						
COc1ccc2cc3[n+](cc2c1OC)CCc1cc2c(cc1-3)OCO2.[Cl-] [BERBERINE CHLORIDE]	3.44	2190	Not Active		Not Active	Not Active	Not Active	Not Active		2220	370				
COc1cc(N)c(Cl)cc1C(=O)NC1CCN(CCCOc2ccc(F)cc2)CC1OC (configuration not stated) [CISAPRIDE]					Not Active	Not Active	Not Active	Not Active							
COc1cc([C@@H]2c3cc4c(cc3[C@@H](O[C@@H]3O[C@@H]5CO[C@@H](C)O[C@H]5[C@H](O)[C@H]3O)[C@H]3COC(=O)[C@H]23)OCO4)cc(OC)c1O [ETOPOSIDE]			Not Active	Not Active	Not Active	Not Active			Not Active						
COc1ccc2c3c1O[C@H]1C[C@@H](O)C=C[C@@]31CCN(C)C2 [GALANTAMINE]			Not Active	Not Active	Not Active	Not Active			Not Active						
CC(C)=CCC/C(C)=C/CO [GERANIOL]			Not Active	Not Active	Not Active	Not Active			Not Active						
Oc1c(Cl)cc(Cl)c(Cl)c1Cc1c(O)c(Cl)cc(Cl)c1Cl [HEXACHLOROPHENE]				Not Active	Not Active	Not Active	Not Active	Not Active				4.6	2.41		
CC(=O)[C@@]1(O)CC[C@H]2[C@@H]3CCC4=CC(=O)CC[C@]4(C)[C@H]3CC[C@@]21C [HYDROXYPROGESTERONE]			Not Active	Not Active	Not Active				Not Active					12	1.55
CC(C)NCC(O)COc1cccc2[nH]ccc12 (configuration not stated) [PINDOLOL]			Not Active	Not Active	Not Active				Not Active						
CCCNCC(O)COc1ccccc1C(=O)CCc1ccccc1 (configuration not stated) [PROPAFENONE]				Not Active	Not Active	Not Active	Not Active	Not Active							
CC(C)c1cccc(C(C)C)c1O [PROPOFOL]	5.5	3500		Not Active	Not Active	Not Active						11.6	6.05		
